Tested on: MV-4-11 cells
Assay: Gene expression microarray analysis (Affymetrix PrimeView) and GSEA
Type: cell-based, human
Set-up: RFU PODN (11730768_x_at) / Fold change /veh PODN (11730768_x_at) / RFU LINC00158 (11744669_a_at) / Fold change /veh LINC00158 (11744669_a_at) / RFU DUSP10 (11751237_a_at) / Fold change /veh DUSP10 (11751237_a_at) / RFU ID3 (11757404_x_at) / Fold change /veh ID3 (11757404_x_at) / RFU PLEKHG5 (11737974_s_at) / Fold change /veh PLEKHG5 (11737974_s_at) / RFU LRRC4B (11730491_at) / Fold change /veh LRRC4B (11730491_at) / RFU GIMAP4 (11747438_a_at) / Fold change /veh GIMAP4 (11747438_a_at) / RFU KRT8 (11758183_x_at) / Fold change /veh KRT8 (11758183_x_at) / RFU CNN1 (11734310_a_at) / Fold change /veh CNN1 (11734310_a_at) / RFU VPS37D (11726825_at) / Fold change /veh VPS37D (11726825_at) / RFU C10orf10 (11716522_x_at) / Fold change /veh C10orf10 (11716522_x_at) / RFU KIR2DL2 /// KIR2DL4 /// KIR2DL5A /// KIR2DL5B /// KIR2DS1 /// KIR2DS2 /// KIR2DS3 /// KIR2DS4 /// KIR3DL3 /// KIR3DL3 /// KIR3DS1 (11738374_at) / Fold change /veh KIR2DL2 /// KIR2DL4 /// KIR2DL5A /// KIR2DL5B /// KIR2DS1 /// KIR2DS2 /// KIR2DS3 /// KIR2DS4 /// KIR3DL3 /// KIR3DL3 /// KIR3DS1 (11738374_at) / RFU C1QL1 (11718748_at) / Fold change /veh C1QL1 (11718748_at) / RFU TMPRSS4 (11747572_a_at) / Fold change /veh TMPRSS4 (11747572_a_at) / RFU HAMP (11756126_x_at) / Fold change /veh HAMP (11756126_x_at) / RFU RNFT2 (11725882_a_at) / Fold change /veh RNFT2 (11725882_a_at) / RFU NR4A2 (11747474_a_at) / Fold change /veh NR4A2 (11747474_a_at) / RFU ABCC12 (11746883_a_at) / Fold change /veh ABCC12 (11746883_a_at) / RFU TMEM136 (11760407_x_at) / Fold change /veh TMEM136 (11760407_x_at) / RFU CLDN22 /// WWC2 (11732394_at) / Fold change /veh CLDN22 /// WWC2 (11732394_at) / RFU HLA-DPB1 (11760878_x_at) / Fold change /veh HLA-DPB1 (11760878_x_at) / RFU SPINT1 (11716480_a_at) / Fold change /veh SPINT1 (11716480_a_at) / RFU GAP43 (11754022_s_at) / Fold change /veh GAP43 (11754022_s_at) / RFU A4GNT (11735810_at) / Fold change /veh A4GNT (11735810_at) / RFU PRB3 (11715151_x_at) / Fold change /veh PRB3 (11715151_x_at) / RFU TUBB4B (11761932_at) / Fold change /veh TUBB4B (11761932_at) / RFU CAPN14 (11732068_a_at) / Fold change /veh CAPN14 (11732068_a_at) / RFU TMCC2 (11721928_a_at) / Fold change /veh TMCC2 (11721928_a_at) / RFU IRGQ (11745062_a_at) / Fold change /veh IRGQ (11745062_a_at) / RFU FAM174B (11720279_a_at) / Fold change /veh FAM174B (11720279_a_at) / RFU TMPRSS4 (11748680_a_at) / Fold change /veh TMPRSS4 (11748680_a_at) / RFU FAM212B (11763350_a_at) / Fold change /veh FAM212B (11763350_a_at) / RFU PLEKHG5 (11743358_a_at) / Fold change /veh PLEKHG5 (11743358_a_at) / RFU ZSCAN30 (11745921_a_at) / Fold change /veh ZSCAN30 (11745921_a_at) / RFU CMKLR1 (11741424_a_at) / Fold change /veh CMKLR1 (11741424_a_at) / RFU LOC101060620 /// MAPK8IP1 (11723275_at) / Fold change /veh LOC101060620 /// MAPK8IP1 (11723275_at) / RFU SPTSSB (11747773_x_at) / Fold change /veh SPTSSB (11747773_x_at) / RFU PRSS12 (11739890_at) / Fold change /veh PRSS12 (11739890_at) / RFU BIN1 (11741810_x_at) / Fold change /veh BIN1 (11741810_x_at) / RFU WNT11 (11732464_a_at) / Fold change /veh WNT11 (11732464_a_at) / RFU C10orf10 (11716521_a_at) / Fold change /veh C10orf10 (11716521_a_at) / RFU C5orf56 (11738089_at) / Fold change /veh C5orf56 (11738089_at) / RFU CYB561 (11721691_x_at) / Fold change /veh CYB561 (11721691_x_at) / RFU ANKRD19P (11752326_a_at) / Fold change /veh ANKRD19P (11752326_a_at) / RFU OR2T12 /// OR2T33 /// OR2T8 (11738714_s_at) / Fold change /veh OR2T12 /// OR2T33 /// OR2T8 (11738714_s_at) / RFU VCAN (11748164_a_at) / Fold change /veh VCAN (11748164_a_at) / RFU JSRP1 (11732532_at) / Fold change /veh JSRP1 (11732532_at) / RFU KRTAP10-11 (11738290_x_at) / Fold change /veh KRTAP10-11 (11738290_x_at) / RFU MYO3A (11730013_a_at) / Fold change /veh MYO3A (11730013_a_at) / RFU EBF3 (11725865_a_at) / Fold change /veh EBF3 (11725865_a_at) / RFU CAMK2N1 (11719241_x_at) / Fold change /veh CAMK2N1 (11719241_x_at) / RFU C5orf56 (11738088_a_at) / Fold change /veh C5orf56 (11738088_a_at) / RFU OLFML3 (11715873_a_at) / Fold change /veh OLFML3 (11715873_a_at) / RFU LOC100653217 /// NTM (11731650_a_at) / Fold change /veh LOC100653217 /// NTM (11731650_a_at) / RFU MAPK11 (11762145_a_at) / Fold change /veh MAPK11 (11762145_a_at) / RFU FIZ1 (11724087_x_at) / Fold change /veh FIZ1 (11724087_x_at) / RFU OASL (11726364_x_at) / Fold change /veh OASL (11726364_x_at) / RFU SOX15 (11748057_x_at) / Fold change /veh SOX15 (11748057_x_at) / RFU CD79A (11719716_a_at) / Fold change /veh CD79A (11719716_a_at) / RFU HIST1H1D (11736915_at) / Fold change /veh HIST1H1D (11736915_at) / RFU CASKIN2 (11723855_a_at) / Fold change /veh CASKIN2 (11723855_a_at) / RFU LOC730098 (11760151_x_at) / Fold change /veh LOC730098 (11760151_x_at) / RFU OR4N2 (11742367_at) / Fold change /veh OR4N2 (11742367_at) / RFU PRRT2 (11749266_a_at) / Fold change /veh PRRT2 (11749266_a_at) / RFU SNX32 (11753110_a_at) / Fold change /veh SNX32 (11753110_a_at) / RFU CDHR5 (11726645_a_at) / Fold change /veh CDHR5 (11726645_a_at) / RFU RCAN1 (11760418_a_at) / Fold change /veh RCAN1 (11760418_a_at) / RFU FAM167A (11723789_a_at) / Fold change /veh FAM167A (11723789_a_at) / RFU FAM26E (11764081_at) / Fold change /veh FAM26E (11764081_at) / RFU ISYNA1 (11749810_s_at) / Fold change /veh ISYNA1 (11749810_s_at) / RFU ACY1 (11761880_at) / Fold change /veh ACY1 (11761880_at) / RFU 11764098_at / Fold change /veh 11764098_at / RFU SAMD14 (11745864_x_at) / Fold change /veh SAMD14 (11745864_x_at) / RFU NPB (11741838_a_at) / Fold change /veh NPB (11741838_a_at) / RFU TMPRSS6 (11731388_a_at) / Fold change /veh TMPRSS6 (11731388_a_at) / RFU KRTAP10-2 (11738614_at) / Fold change /veh KRTAP10-2 (11738614_at) / RFU ARHGAP8 /// PRR5-ARHGAP8 (11727945_x_at) / Fold change /veh ARHGAP8 /// PRR5-ARHGAP8 (11727945_x_at) / RFU KRTAP5-7 /// NADSYN1 (11734609_at) / Fold change /veh KRTAP5-7 /// NADSYN1 (11734609_at) / RFU RASL12 (11751679_a_at) / Fold change /veh RASL12 (11751679_a_at) / RFU CDKN2B (11736163_a_at) / Fold change /veh CDKN2B (11736163_a_at) / RFU PRF1 (11729649_at) / Fold change /veh PRF1 (11729649_at) / RFU, ZNF638 /// ZNF638-IT1 / Fold change vs veh, ZNF638 /// ZNF638-IT1 / RFU, PANK3 / Fold change vs veh, PANK3 / RFU, SH3YL1 / Fold change vs veh, SH3YL1 / RFU, ZEB2 / Fold change vs veh, ZEB2 / RFU, NRIP1 / Fold change vs veh, NRIP1 / RFU, PTTG1IP / Fold change vs veh, PTTG1IP / RFU, CAPN2 / Fold change vs veh, CAPN2 / RFU, MED14 / Fold change vs veh, MED14 / RFU, SNORA58 / Fold change vs veh, SNORA58 / RFU, C1orf63 / Fold change vs veh, C1orf63 / RFU, LRRFIP1 / Fold change vs veh, LRRFIP1 / RFU, NDUFAF7 / Fold change vs veh, NDUFAF7 / RFU, SLC12A2 / Fold change vs veh, SLC12A2 / RFU, IBTK / Fold change vs veh, IBTK / RFU, ESF1 / Fold change vs veh, ESF1 / Fold change vs veh, TMEM50B / RFU, TAOK1 / Fold change vs veh, TAOK1 / RFU, ACBD3 / Fold change vs veh, ACBD3 / RFU, TMA16 / Fold change vs veh, TMA16 / RFU, RWDD3 / Fold change vs veh, RWDD3 / RFU, BCAT1 / Fold change vs veh, BCAT1 / RFU, EDEM3 / Fold change vs veh, EDEM3 / RFU, TMEM33 / Fold change vs veh, TMEM33 / RFU, WDR75 / Fold change vs veh, WDR75 / RFU, AHCTF1 / Fold change vs veh, AHCTF1 / RFU, TFRC / Fold change vs veh, TFRC / RFU, ZDHHC17 / Fold change vs veh, ZDHHC17 / RFU, NOM1 / Fold change vs veh, NOM1 / RFU, ARL8B / Fold change vs veh, ARL8B / RFU, ZBTB11 / Fold change vs veh, ZBTB11 / RFU, TAMM41 / Fold change vs veh, TAMM41 / RFU, KIAA1704 /// LOC100996395 / Fold change vs veh, KIAA1704 /// LOC100996395 / RFU, ING1 / Fold change vs veh, ING1 / RFU, TRMT61B / Fold change vs veh, TRMT61B / RFU, FUBP3 / Fold change vs veh, FUBP3 / RFU, TP53 / Fold change vs veh, TP53 / RFU, TNKS2 / Fold change vs veh, TNKS2 / RFU, ZFP14 / Fold change vs veh, ZFP14 / RFU, ACTR2 / Fold change vs veh, ACTR2 / RFU, PPP3R1 / Fold change vs veh, PPP3R1 / RFU, PIK3R1 / Fold change vs veh, PIK3R1 / RFU, HNRNPA1 / Fold change vs veh, HNRNPA1 / RFU, RNF170 / Fold change vs veh, RNF170 / RFU, ZNF28 / Fold change vs veh, ZNF28 / RFU, RNGTT / Fold change vs veh, RNGTT / RFU, OGT / Fold change vs veh, OGT / RFU, BRD1 / Fold change vs veh, BRD1 / RFU, MARS / Fold change vs veh, MARS / RFU, ZNF655 / Fold change vs veh, ZNF655 / RFU, FAHD1 / Fold change vs veh, FAHD1 / RFU, BDP1 / Fold change vs veh, BDP1 / RFU, LRRCC1 / Fold change vs veh, LRRCC1 / RFU, ARID1A / Fold change vs veh, ARID1A / RFU, ZNF146 / Fold change vs veh, ZNF146 / RFU, ZNF330 / Fold change vs veh, ZNF330 / RFU, GPN3 / Fold change vs veh, GPN3 / RFU, C9orf123 / Fold change vs veh, C9orf123 / RFU, N4BP2L2 / Fold change vs veh, N4BP2L2 / RFU, ARFIP1 / Fold change vs veh, ARFIP1 / RFU, FAM179B / Fold change vs veh, FAM179B / RFU, BCL10 / Fold change vs veh, BCL10 / RFU, UHRF1BP1L / Fold change vs veh, UHRF1BP1L / RFU, BET1 / Fold change vs veh, BET1 / RFU, CNOT2 / Fold change vs veh, CNOT2 / RFU, ZNF268 / Fold change vs veh, ZNF268 / Fold change vs veh, ZNF507 / RFU, DGCR2 / Fold change vs veh, DGCR2 / RFU, WDSUB1 / Fold change vs veh, WDSUB1 / Fold change vs veh, HSP90B1 /// MIR3652 / RFU, ADSS / Fold change vs veh, ADSS / RFU, GK / Fold change vs veh, GK / RFU, ZNF148 / Fold change vs veh, ZNF148 / RFU, TAF9 / Fold change vs veh, TAF9 / RFU, SLC1A5 / Fold change vs veh, SLC1A5 / RFU, SLMO2 / Fold change vs veh, SLMO2 / RFU, ABCC4 / Fold change vs veh, ABCC4 / RFU, LOC101060439 /// RAP1B / Fold change vs veh, LOC101060439 /// RAP1B / RFU, RFX7 / Fold change vs veh, RFX7 / RFU, GTPBP10 / Fold change vs veh, GTPBP10 / RFU, CNEP1R1 / Fold change vs veh, CNEP1R1 / RFU, BIVM-ERCC5 /// ERCC5 / Fold change vs veh, BIVM-ERCC5 /// ERCC5 / RFU, ILF3 / Fold change vs veh, ILF3 / RFU 11762660_at / Fold change /veh 11762660_at / RFU VCAN (11757783_s_at) / Fold change /veh VCAN (11757783_s_at) / RFU DDX43 (11728927_at) / Fold change /veh DDX43 (11728927_at) / RFU KRT8 (11758188_x_at) / Fold change /veh KRT8 (11758188_x_at) / RFU NKD1 (11759106_at) / Fold change /veh NKD1 (11759106_at) / RFU SRD5A1 (11742802_a_at) / Fold change /veh SRD5A1 (11742802_a_at) / RFU TPSAB1 /// TPSB2 (11721975_s_at) / Fold change /veh TPSAB1 /// TPSB2 (11721975_s_at) / RFU GSTM3 (11746129_a_at) / Fold change /veh GSTM3 (11746129_a_at) / RFU IL23R (11737362_x_at) / Fold change /veh IL23R (11737362_x_at) / RFU TMEM51 (11727254_a_at) / Fold change /veh TMEM51 (11727254_a_at) / RFU PIWIL2 (11732686_x_at) / Fold change /veh PIWIL2 (11732686_x_at) / RFU ORM1 (11744905_x_at) / Fold change /veh ORM1 (11744905_x_at) / RFU CCDC152 (11743942_at) / Fold change /veh CCDC152 (11743942_at) / RFU ECM1 (11717891_a_at) / Fold change /veh ECM1 (11717891_a_at) / RFU IL23R (11748794_a_at) / Fold change /veh IL23R (11748794_a_at) / RFU TNFAIP8L3 (11732012_x_at) / Fold change /veh TNFAIP8L3 (11732012_x_at) / RFU MBOAT4 (11741988_at) / Fold change /veh MBOAT4 (11741988_at) / RFU 11764193_at / Fold change /veh 11764193_at / RFU TMEM53 (11763286_at) / Fold change /veh TMEM53 (11763286_at) / RFU MAGEB2 (11727129_at) / Fold change /veh MAGEB2 (11727129_at) / RFU TMEM200A (11744735_a_at) / Fold change /veh TMEM200A (11744735_a_at) / RFU CCDC152 (11751479_a_at) / Fold change /veh CCDC152 (11751479_a_at) / RFU FAM211A (11726209_a_at) / Fold change /veh FAM211A (11726209_a_at) / RFU RGS16 (11746705_a_at) / Fold change /veh RGS16 (11746705_a_at) / RFU VCAN (11755009_s_at) / Fold change /veh VCAN (11755009_s_at) / RFU RHOB (11743442_s_at) / Fold change /veh RHOB (11743442_s_at) / RFU RGS16 (11720943_a_at) / Fold change /veh RGS16 (11720943_a_at) / RFU RGS16 (11720944_at) / Fold change /veh RGS16 (11720944_at) / RFU, VPS4B / Fold change vs veh, VPS4B / RFU, CREB1 / Fold change vs veh, CREB1 / RFU, DNAJC13 / Fold change vs veh, DNAJC13 / RFU, GNAQ / Fold change vs veh, GNAQ / RFU, CDK5R1 / Fold change vs veh, CDK5R1 / RFU, ZRANB3 / Fold change vs veh, ZRANB3 / RFU, CUL4A / Fold change vs veh, CUL4A / RFU, CCNY / Fold change vs veh, CCNY / RFU, UFL1 / Fold change vs veh, UFL1 / RFU, COG3 / Fold change vs veh, COG3 / RFU, DIAPH2 / Fold change vs veh, DIAPH2 / RFU, SKA2 / Fold change vs veh, SKA2 / RFU, AFF3 / Fold change vs veh, AFF3 / RFU, LMF1 / Fold change vs veh, LMF1 / RFU, IPO11 / Fold change vs veh, IPO11 / RFU, DFFB / Fold change vs veh, DFFB / RFU, FOXP1 / Fold change vs veh, FOXP1 / RFU, CARD8 / Fold change vs veh, CARD8 / RFU, STRN3 / Fold change vs veh, STRN3 / RFU, ADK / Fold change vs veh, ADK / RFU, RASSF2 / Fold change vs veh, RASSF2 / RFU, WIPF1 / Fold change vs veh, WIPF1 / RFU, LARP1B / Fold change vs veh, LARP1B / RFU, RASA1 / Fold change vs veh, RASA1 / RFU, RB1 / Fold change vs veh, RB1 / RFU, PPFIA1 / Fold change vs veh, PPFIA1 / RFU, MAT2A / Fold change vs veh, MAT2A / RFU, CCT5 / Fold change vs veh, CCT5 / RFU, WDR92 / Fold change vs veh, WDR92 / RFU, CUX1 / Fold change vs veh, CUX1 / RFU, TTC7A / Fold change vs veh, TTC7A / RFU, TMEM135 / Fold change vs veh, TMEM135 / RFU, DEPTOR / Fold change vs veh, DEPTOR / RFU, CPM / Fold change vs veh, CPM / RFU, DNAJB6 / Fold change vs veh, DNAJB6 / RFU, CACNA2D3 / Fold change vs veh, CACNA2D3 / RFU, DTX4 / Fold change vs veh, DTX4 / RFU, TFCP2 / Fold change vs veh, TFCP2 / RFU, GMCL1 /// GMCL1P1 / Fold change vs veh, GMCL1 /// GMCL1P1 / RFU, AEBP2 / Fold change vs veh, AEBP2 / RFU, SNHG1 /// SNORD22 /// SNORD25 /// SNORD26 /// SNORD27 /// SNORD28 /// SNORD29 /// SNORD31 / Fold change vs veh, SNHG1 /// SNORD22 /// SNORD25 /// SNORD26 /// SNORD27 /// SNORD28 /// SNORD29 /// SNORD31 / Fold change (Aza/veh), C12orf56 (ProbeSet 11735607_a_at) / Fold change (ACY-1035/veh), C12orf56 (ProbeSet 11735607_a_at) / Fold change (Aza/veh), FGFR1OP (ProbeSet 11751329_s_at) / Fold change (ACY-1035/veh), FGFR1OP (ProbeSet 11751329_s_at) / Fold change (Aza/veh), VPS36 (ProbeSet 11739960_a_at) / Fold change (ACY-1035/veh), VPS36 (ProbeSet 11739960_a_at) / RFU SYPL1 (11715823_x_at) / Fold change /veh SYPL1 (11715823_x_at) / RFU IGFBP7 (11715501_s_at) / Fold change /veh IGFBP7 (11715501_s_at) / RFU REEP3 (11722064_at) / Fold change /veh REEP3 (11722064_at) / RFU IGLL1 (11728026_x_at) / Fold change /veh IGLL1 (11728026_x_at): dose or concentration left out as unconfirmed
Conditions: ProbeSet 11746640_a_at; LIST D

Nc1ncn([C@@H]2O[C@H](CO)[C@@H](O)[C@H]2O)c(=O)n1 [azacitidine]
Fold change vs veh, RASSF2: 0.77

Source: paper PMC5218480 (PLoS ONE, 2017)
